Laboratory results published in publication PMC8810462, “Targeted fluorescent imaging of a novel FITC-labeled PSMA ligand in prostate cancer” (Amino Acids, 2021).

What was measured:
[1] = Ex vivo fluorescence imaging of dissected tumors, tissues and organs (distribution); assay type: in vivo, BALB/c male nude mice; details: 22Rv1 tumor-bearing mice, 0.5 mg/kg tail vein, 30, 60, 120 min
Protocol: (§1) In vivo fluorescence imaging was performed using the French Biospace Lab in vivo optical imaging system, the PHOTON IMAGER OPTIMA multidimensional real-time awake animal in vivo optical imaging system software was used for analysis, and the FITC exclusive filter was used to collect the fluorescence of PSMA-FITC. All images were collected using the same parameters (lamp voltage, filter, exposure height, exposure time, and field of view). The collected images were processed in a unified manner, and the number of photons per second per centimeter squared per steradian (ph/s/cm^2/sr) was used for analysis. 22Rv1 tumor-bearing mice in the nonblocking group (n = 5) and PC3 tumor-bearing mice (n = 5) were injected with PSMA-FITC (0.5 mg/kg) through the tail vein, and fluorescence imaging was performed at different time points after injection. The 22Rv1 tumor-bearing mice (n = 5) in the blocking group were injected with a mixture of 2-PMPA (2 mg/kg) and PSMA-FITC (0.5 mg/kg), and fluorescence imaging was performed 60 min after the injection. Another 9 22Rv1 tumor-bearing mice were divided into three groups (3/group), PSMA-FITC (0.5 mg/kg) was injected into the tail vein, and the mice were euthanized 30, 60, or 120 min after injection. The tumors, tissues, and organs were dissected, and a fluorescence imaging system was used for in vitro imaging. The ROI was delineated, and the average fluorescence intensity reported.

[2] = Acute toxicity test (HE staining of organs); assay type: in vivo, ICR male mice; details: 100 mg/kg tail vein, organs collected 7 days later
Protocol: ICR male mice (approximately 3–4 weeks old, with a body weight of 12–16 g) were injected with PSMA-FITC (100 mg/kg) through the tail vein, and organs were collected 7 days later. The organs were sectioned and stained with HE. The control group was injected with the same volume of normal saline. The steps are the same as described above.

22Rv1 tumor xenograft = assay: In vivo fluorescence imaging of tumor-bearing mice; parameters: species or system BALB/c male nude mice; details: for tumor-background ratio (TBR): 60 min after injection, n = 5
Protocol: (§2) All animal procedures were performed in accordance with the protocol approved by the Animal Care and Use Committee of the PLA General Hospital. BALB/c male nude mice (approximately 3–4 weeks old, with a body weight of 13–15 g) were purchased from Charles River Laboratories (Beijing, China). Then, 0.1 ml (approximately 5 × 10^6 cells) of 22Rv1 cell suspension was subcutaneously injected into the right shoulder of each mouse to form an 22Rv1 tumor xenograft. Vernier calipers were used to measure the length and shortest diameter of the tumor, and the tumor volume was estimated according to the formula (V = 1/2 × long diameter × shortest diameter^2). Fluorescence imaging was performed in vivo and in vitro when the tumor volume reached 200–300 mm^3. The PC3 cell planting method is the same as 22Rv1 cell planting method.
as §1
(§3) All measured values are expressed as the means ± standard deviation. Independent sample t-test was used for statistical analysis, and P < 0.05 was considered statistically significant. To clarify tumor contrast, the region of interest (ROI) was delineated, and the mean fluorescence intensity of tumor tissue (T) and background (B) was collected. TBR was used to represent tumor-background contrast. Normal muscle tissue was selected as the background to outline.

PSMA (−) PC3 tumor = assay: In vivo fluorescence imaging of tumor-bearing mice; parameters: species or system BALB/c male nude mice; details: 0.5 mg/kg tail vein, compared with 22Rv1 tumor-bearing mice
Protocol: as §2, §1, §3

PSMA(−) PC3 cells = assay: In vitro confocal fluorescence imaging, cell uptake; assay type: cell-based, human; details: 5 μg PSMA-FITC, 37 °C, 60 min
Protocol: (§4) Both the LNCaP cells and PC3 cells were grown in a T25 cell culture flask (Corning Inc., Corning, NY, USA). The cultured LNCaP cells and PC3 cells were inoculated into a confocal dish and placed in an incubator at 37 °C/5% CO2 for 24 h. The medium was changed 2 h before the cell uptake experiment. The medium was removed, the flask rinsed once with PBS, and 5 μg of PSMA-FITC (100 μl) was added to each dish, which was then filled with medium to a final volume of 2 ml. The cells were incubated in an incubator for 60 min, washed 4 times with PBS buffer containing 0.2% BSA. Add 450 μl 4% paraformaldehyde to fix the cells for 10 min then rinse with PBS for four times. Cell nucleus were stained with 450 μl Hoechst33342 for 10 min and rinsed with PBS for four times. Add 500 μl PBS before observation. The cells were observed under confocal microscope (Olympus FV 1000) in dark room. In the blocking group, the LNCaP cells were pretreated with 2-PMPA (20 μg) for 30 min, and then PSMA-FITC was added and incubated for 60 min. The steps are the same as described above in the dark.

PSMA(+) LNCaP cells = assay: as above; assay type: cell-based, human
Protocol: as §4

[3] = 0.5 mg/kg tail vein, 22Rv1 tumor-bearing mice

## O=C(O)CCC(NC(=O)NC(CCCCNC(=O)CCCCCNC(=S)Nc1ccc2c(c1)C(=O)OC21c2ccc(O)cc2Oc2cc(O)ccc21)C(=O)O)C(=O)O (stereo not drawn) [PSMA-FITC]
[1]
  fluorescence intensity of liver and small intestine (ex vivo): strong fluorescence intensity
  fluorescence intensity of the bladder (ex vivo): obviously at a high level
  uptake by the kidney (ex vivo fluorescence): higher than that measured in other normal organs
[2]
  organ damage (histopathology, HE staining): not damaged
22Rv1 tumor xenograft; [3]
  time of highest tumor-background contrast after injection: 60 min
  time to tumor targeting after injection: ≤ 30 min
22Rv1 tumor xenograft; blocking group, coinjection of 2-PMPA 2 mg/kg with PSMA-FITC 0.5 mg/kg
  tumor-background ratio (TBR): 0.44 ± 0.13
22Rv1 tumor xenograft; nonblocking group, PSMA-FITC 0.5 mg/kg tail vein
  tumor-background ratio (TBR): 3.45 ± 0.31
PSMA (−) PC3 tumor
  tumor uptake of the probe: significantly lower than that of 22Rv1 tumor-bearing mice
PSMA(−) PC3 cells
  fluorescence signal in cells (confocal microscopy): negligible fluorescence signaling
PSMA(+) LNCaP cells; LNCaP cells pretreated with 2-PMPA (20 μg) for 30 min, then PSMA-FITC 60 min
  fluorescence signal in cells (confocal microscopy): negligible fluorescence signaling
PSMA(+) LNCaP cells; LNCaP cells, 5 μg PSMA-FITC, 37 °C, 60 min, no blocking
  fluorescence signal in cells (confocal microscopy): Significant fluorescence signals
